{"source": "paper PMC6057649", "about": "“Development of NanoLuc-PEST expressing Leishmania mexicana as a new drug discovery tool for axenic- and intramacrophage-based assays” (PLoS Neglected Tropical Diseases, 2018)", "key": {"[1]": {"system": "NanoLuc-PEST expressing L. mexicana axenic amastigotes", "assay": "microbe, parasite or virus in culture", "assay_type": "cell-based"}, "[2]": {"system": "L. mexicana NanoLuc-PEST intramacrophage amastigotes", "assay": "Bioluminescence-based intramacrophage assay in THP-1 infection model", "assay_type": "cell-based", "settings": "for EC50: read-out: EC50 against amastigotes, Intramacrophage; for EC90: read-out: EC90 against amastigotes, Intramacrophage"}, "HepG2": {"system": "HepG2", "settings": "read-out: HepG2 CC50; ref MMV Pathogen Box website; cited from earlier work"}, "[3]": {"system": "L. mexicana axenic amastigotes", "design": "method as in PMID 9087496", "settings": "L. mexicana axenic amastigotes ref 47; read-out: Previous EC50, axenic amastigotes; cited from earlier work"}, "[4]": {"system": "NanoLuc-PEST expressing L. mexicana axenic amastigotes", "assay": "Fluorescence-based (AlamarBlue) viability assay, NanoLuc-PEST axenic amastigotes", "settings": "Leishmania mexicana, 72 h"}, "[5]": {"system": "L. mexicana intramacrophage amastigotes", "design": "method as in PMID 14695832", "settings": "values in brackets ref 52, read-out: Previous EC50, intramacrophage amastigotes; cited from earlier work"}, "[6]": {"system": "Leishmania spp. intramacrophage amastigotes", "settings": "value in brackets ref 55, read-out: Previous EC50, intramacrophage amastigotes; cited from earlier work"}, "[7]": {"system": "wild-type L. mexicana axenic amastigotes", "assay": "Fluorescence-based (AlamarBlue) viability assay, parental axenic amastigotes", "settings": "Leishmania mexicana, 72 h"}, "[8]": {"settings": "Leishmania mexicana, 72 h; read-out: EC50"}, "[9]": {"settings": "Leishmania mexicana; 2 µM compound, 72 hours, relative to DMSO only control, n = 4; read-out: Relative Bioluminescence (%)"}, "[10]": {"settings": "Leishmania mexicana; 10 µM compound, 72 hours, relative to DMSO only control, n = 4; read-out: Relative Bioluminescence (%)"}, "[11]": {"settings": "Leishmania mexicana; read-out: EC50 against amastigotes, Axenic"}, "[12]": {"settings": "Leishmania mexicana; read-out: EC90 against amastigotes, Axenic"}, "[13]": {"settings": "Leishmania mexicana, THP-1 infection model, bioluminescence"}}, "note": "“And” between values parts separate entries of the source, which are not always exact repeats. Identical values can stand only once. Like-named read-outs stand apart in the source and are kept apart here."}
{"smiles": "CCc1c(C)nc(-n2nc(C)cc2NC(=O)c2ccccc2SC)[nH]c1=O", "note": "[MMV676477]", "values": [{"measurement": "Relative Bioluminescence (%)", "setting": "[1]; 2 µM compound, 72 hours, relative to DMSO only control, n = 4", "value": -0.98, "unit": "%"}, {"measurement": "Relative Bioluminescence (%)", "setting": "[1]; 10 µM compound, 72 hours, relative to DMSO only control, n = 4", "value": -0.92, "unit": "%"}, {"measurement": "EC50", "setting": "[1]; hit compounds from the axenic amastigote screen, S3 Table; read-out: EC50, Axenic Amastigotes", "value": 70, "unit": "nM"}, {"measurement": "EC50", "setting": "[1]; read-out: EC50 against amastigotes, Axenic", "value": 69, "unit": "nM"}, {"measurement": "EC90", "setting": "[1]; read-out: EC90 against amastigotes, Axenic", "value": 168, "unit": "nM"}, {"measurement": "EC50", "setting": "[2]", "value": 4780, "unit": "nM"}, {"measurement": "EC90", "setting": "[2]", "value": 6110, "unit": "nM"}, {"measurement": "EC50", "setting": "THP-1 cell line", "value": "> 50000", "unit": "nM"}, {"measurement": "CC50", "setting": "HepG2", "value": 1300, "unit": "nM"}]}
{"smiles": "C[C@@H]1[C@H](O)[C@@H](C)/C=C/C=C/C=C/C=C/C=C/C=C/C=C/[C@H](O[C@@H]2O[C@H](C)[C@@H](O)[C@H](N)[C@@H]2O)C[C@@H]2O[C@](O)(C[C@@H](O)C[C@@H](O)[C@H](O)CC[C@@H](O)C[C@@H](O)CC(=O)O[C@H]1C)C[C@H](O)[C@H]2C(=O)O", "note": "[Amphotericin B, reference compound]", "values": [{"measurement": "EC50", "setting": "[1]; [8]", "value": 200, "unit": "nM"}, {"measurement": "viability at 2 µM", "setting": "[1]; [9]", "value": 58.3, "unit": "%"}, {"measurement": "viability at 10 µM", "setting": "[1]; [10]", "value": 48.4, "unit": "%"}, {"measurement": "EC50", "setting": "[1]; Leishmania mexicana; axenic amastigotes; span over parental and transgenic line, both bioluminescence- and fluorescence-based assays; read-out: EC50 values from the parental and transgenic line", "value": "200 to 270", "unit": "nM"}, {"measurement": "EC50", "setting": "[1]; [11]", "value": 201, "unit": "nM"}, {"measurement": "EC90", "setting": "[1]; [12]", "value": 279, "unit": "nM"}, {"measurement": "decrease of bioluminescent signal", "setting": "[2]", "value": "≥ 99", "unit": "%"}, {"measurement": "EC50", "setting": "[2]; Leishmania mexicana, THP-1", "value": 105, "unit": "nM"}, {"measurement": "EC90", "setting": "[2]; Leishmania mexicana, THP-1", "value": 185, "unit": "nM"}, {"measurement": "EC50", "setting": "[3]", "value": "300 nM and 303 nM"}, {"measurement": "EC50", "setting": "[4]", "value": 270, "unit": "nM"}]}
{"smiles": "CC(C)(C)[C@H]1CC[C@H](CC2=C(O)C(=O)c3ccccc3C2=O)CC1", "note": "[MMV689480, Buparvaquone, reference compound]", "values": [{"measurement": "viability at 2 µM", "setting": "[1]; [9]", "value": -0.24, "unit": "%"}, {"measurement": "viability at 10 µM", "setting": "[1]; [10]", "value": 0.15, "unit": "%"}, {"measurement": "EC50", "setting": "[1]; Leishmania mexicana; hit compounds from the axenic amastigote screen, S3 Table; read-out: EC50, Axenic Amastigotes", "value": 2.2, "unit": "nM"}, {"measurement": "EC50", "setting": "[1]; [11]", "value": 2, "unit": "nM"}, {"measurement": "EC90", "setting": "[1]; [12]", "value": 11, "unit": "nM"}, {"measurement": "EC50", "setting": "[2]; [13]", "value": 394, "unit": "nM"}, {"measurement": "EC90", "setting": "[2]; [13]", "value": 1260, "unit": "nM"}, {"measurement": "EC50", "setting": "[5]", "value": "1250 nM and 1440 nM"}]}
{"smiles": "CCCCCCCCCCCCCCCCOP(=O)([O-])OCC[N+](C)(C)C", "note": "[Miltefosine, reference compound]", "values": [{"measurement": "EC50", "setting": "[1]; [8]", "value": 2190, "unit": "nM"}, {"measurement": "EC50", "setting": "[1]; Leishmania mexicana, read-out: EC50 against amastigotes, Axenic", "value": 1990, "unit": "nM"}, {"measurement": "viability at 2 µM", "setting": "[1]; [9]", "value": 43, "unit": "%"}, {"measurement": "viability at 10 µM", "setting": "[1]; [10]", "value": 11.5, "unit": "%"}, {"measurement": "EC90", "setting": "[1]; [12]", "value": 19800, "unit": "nM"}, {"measurement": "EC50", "setting": "[2]; Leishmania mexicana, THP-1", "value": 10900, "unit": "nM"}, {"measurement": "EC90", "setting": "[2]; Leishmania mexicana, THP-1", "value": 37300, "unit": "nM"}, {"measurement": "EC50", "setting": "[6]", "value": 15700, "unit": "nM"}, {"measurement": "EC50", "setting": "[7]", "value": 1110, "unit": "nM"}, {"measurement": "EC50", "setting": "[4]", "value": 1990, "unit": "nM"}]}
